Test results reported in patent US20180147183A1, “USE OF R-OXIRACETAM IN PHARMACEUTICAL FIELD” (Chongqing Runze Pharmaceutical Co., Ltd., priority 2015, published 2018).
Several values for one entry are separate records, joined by “and”; a condition that tells them apart may be missing. Identical values can stand only once.

Assay: Pharmacokinetics and bioavailability in dogs, plasma determined by LC-MS
Format: in vivo, dog
Description: A. The Pharmacokinetics of R-Oxiracetam In Vivo and Studies of Bioavailability
4 Determination Methods of Oxiracetam and R-Oxiracetam in Plasma by LC-MS
4.1 Chromatographic Conditions
Mobile phase: methanol: water (5:95)
Column: ZORBAX SB-Aq (2.1×100 mm 3.5μ)
Column temperature: 30° C.;
Injection volume: […] 4.2 Mass Spectrometry Detection Parameters
Mass spectrometry ionization method: electrospray ionization (ESI); ion polarity Positive; scanning mode for multiple reactions monitoring (MRM); scanning time of 100 ms. The ionic reactions used for quantitative analysis were m/z (oxiracetam) m/z 159.0→m/z 113.9 and m/z 143.1→m/z 126.0 (piracetam), respectively.
20 μL of the drug-containing the plasma sample is taken in a 1.5 mL Eppendorf tube. 20 μL of piracetam (20 μg/mL) of the internal standard solution is added, and mixed by the vortex mixer for 30s. Then, 500 μL of acetonitrile is added thereto, vortex shaken for 5 min and centrifugated at 16000 rpm for 10 min. The supernatant from the centrifugation was passed through 1 ml of SPE C 18E column and the filtrate was collected, put into 38° C. constant temperature water bath and dried by nitrogen gas. 300 μL of mobile phase was dissolved and the injection volume was 10 μL.
20 μL of blank dog plasma was added into the working solution prepared from the oxiracetam standard. The concentrations of oxiracetam in the plasma were 0.167, 0.33, 0.37, 1.33, 2.67, 4.0, 6.67, 13.33 and 26.67 μg/mL, respectively. A sample was made for each concentration respectively according to the procedures“4.4 Extraction of plasma samples”. The ratio of the peak area (As) of oxiracetam to the peak area (Ai) of the internal standard piracetam (f=As/Ai) were calculated, and perform linear regression using the concentration (C) to the ratio (f). The weight parameter 1/x, and the oxiracetam regression equation: y=5.2117X−0.76985 (r=0.9970, weight 1/x).
20 μL of blank dog plasma was added into the working solution prepared from the R-oxiracetam standard. The concentrations of R-oxiracetam in the plasma were 0.167, 0.33, 0.37, 1.33, 2.67, 4.0, 6.67, 13.33 and 26.67 μg/mL, respectively. A sample was made for each concentration respectively according to the procedures “4.4 Extraction of plasma samples”. The ratio of the peak area (As) of R-oxiracetam to the peak area (Ai) of the internal standard piracetam (f=As/Ai) were calculated, and perform linear regression using the concentration (C) to the ratio (f). The weight parameter 1/x, and the oxiracetam regression equation: y=1.6811X−0.031244(r=0.9949, weight 1/x).

NC(=O)CN1C[C@H](O)CC1=O [R-oxiracetam, (R)-4-hydroxy-2-oxo-1-pyrrolidineacetamide]
Concentration in dog blood C (Time 0 h, individual dogs, one table per dog): 0 ng/mL | Concentration in dog blood C (Time 0.5 h, individual dogs, one table per dog): 30410 ng/mL and 9013 ng/mL and 51070 ng/mL and 7637 ng/mL and 33000 ng/mL and 74670 ng/mL | Concentration in dog blood C (Time 1 h, individual dogs, one table per dog): 50870.6 ng/mL and 35550 ng/mL and 70640 ng/mL and 48190 ng/mL and 54750 ng/mL and 112164.2 ng/mL | Concentration in dog blood C (Time 1.5 h, individual dogs, one table per dog): 110222.9 ng/mL and 37880 ng/mL and 76280 ng/mL and 74560 ng/mL and 61910 ng/mL and 58530 ng/mL | Concentration in dog blood C (Time 6 h, individual dogs, one table per dog): 7637 ng/mL and 14070 ng/mL and 12210 ng/mL and 4648 ng/mL and 10140 ng/mL and 4409 ng/mL | Concentration in dog blood C (Time 8 h, individual dogs, one table per dog): 3684 ng/mL and 4731 ng/mL and 9036 ng/mL and 2318 ng/mL and 4967 ng/mL and 2215 ng/mL | Concentration in dog blood C (Time 12 h, individual dogs, one table per dog): 1610 ng/mL and 1913 ng/mL and 2205 ng/mL and 1461.5 ng/mL and 3568 ng/mL and 1333 ng/mL | Concentration in dog blood C (Time 24 h, individual dogs, one table per dog): 0 ng/mL | concentration at 0 h (dog, plasma, Time 0 h, individual dogs, one table per dog, read-out: Concentration in dog blood C): 0 ng/mL | concentration at 4 h (dog, plasma, Time 4 h, individual dogs, one table per dog, read-out: Concentration in dog blood C): 18400 ng/mL | concentration at 24 h (dog, plasma, Time 24 h, individual dogs, one table per dog, read-out: Concentration in dog blood C): 0 ng/mL | Cmax (dog, plasma, dogs, mean ± SD): 85800 ± 20000 ng/mL | Tmax (dog, plasma, dogs, mean ± SD): 2.04 ± 0.401 h | bioavailability (dog, plasma, dogs, with oxiracetam as a reference, read-out: relative bioavailability): 112 ± 11.6%
